Like-named read-outs stand apart in the source and are kept apart here.
Columns and labels:
DDR1 = DDR1 LanthaScreen Europium Kinase Binding assay
Method: (§1) DDR1 and DDR2 binding assays were performed using Life Technologies LanthaScreen™ Europium Kinase Binding assay. The compounds were incubated with 5 nM DDR1 (Carna Biosciences) or 5 nM DDR2 (Life Technologies) for 1 hour at room temperature in white 384-well OptiPlate (PerkinElmer), containing 20 nM or 10 nM Kinase Tracer 178 respectively and 2 nM Europium labelled anti-GST antibody (Life Technologies) in assay buffer (50 mM HEPES pH 7.5, 10 mM MgCl2, 1 mM EGTA and 0.01% BRIJ35). The ratio of fluorescence emission 665 nm/615 nm after excitation at 340 nm was obtained using the Tecan Spark 20M plate reader. IC50 values were determined in GraphPad Prism 8.0 software, using 4 parameter model: log(inhibitor) vs. response. IC50 values were converted in Ki using the Cheng-Prusoff equation (Ki=IC50/(1+[Tracer]/Kd).

DDR1 receptor = assay: DDR1 cell based assay (PathHunter U2OS DDR1); settings: U2OS-DDR1 cells, bovine Type II Collagen 20 μg/ml stimulation
Method: The inhibition of DDR1 receptor activation by compounds was evaluated by PathHunter® U2OS DDR1 assay (Eurofins DiscoverX), according to the manufacturer's instructions. Briefly, U2O5-DDR1 cells were seeded in white 384-well plates at a density of 5000 cells/well and incubated for 2 hours at 37° C. and 5% CO2. Cells were then treated with compounds at different concentrations and incubated for 30 minutes, before stimulation with bovine Type II Collagen 20 μg/ml and incubation overnight at 37° C. and 5% CO2. PathHunter Detection Reagents were prepared according to the protocol provided by DiscoverX and 20 μl/well of this mix were added to each well. After incubating the plates for 1 hour at room temperature in the dark, luminescence signal was acquired with a plate reader. Raw data were normalized to vehicle control (0% for normalization) and positive control (100% for normalization; cells treated with 20 μg/ml collagen II) and IC50 parameters were calculated in GraphPad Prism 8.0 software, using sigmoidal dose-response curve fitting with variable slope.

DDR2 [1] = assay: DDR2 LanthaScreen Europium Kinase Binding assay
Method: as §1

DDR2 [2] = assay: DDR2 cell based assay (phospho-ELISA in HEK293T-DDR2 cells); design: species or system human; settings: DDR2 phosphorylation, bovine Type II Collagen 50 μg/ml, read-out: IC50DDR2
Method: The inhibition of DDR2 phosphorylation by compounds was evaluated in HEK293T-DDR2 recombinant cells by phospho-ELISA assay. Briefly, HEK293T-DDR2 cells were seeded in poly-D-lysine-coated 24-well plates at a density of 250.000 cells/well and incubated for 1.5 hours at 37° C. and 5% CO2 in DMEM+10% FBS. After that, the medium was changed to serum-free DMEM and cells were incubated for 3 hours. Then. test compounds were added at different concentrations 30 minutes before stimulation with bovine Type II Collagen at 50 μg/ml for further 3 hours. For DDR2 phospho-ELISA assay (DuoSet IC Human Phospho-DDR2; R&D Systems), protein extracts were obtained by adding 60 μl/well of lysis buffer prepared according to the manufacturer's instructions.
Protein concentration in the samples was determined by BCA assay and the levels of phospho-DDR2 were determined following R&D Systems indications. Raw data were normalized to maximal inhibition control (0% for normalization) and positive control (100% for normalization; cells treated with 20 μg/ml collagen II) and IC50 parameters were calculated in GraphPad Prism 8.0 software, using sigmoidal dose-response curve fitting with variable slope.

[3] = 5 nM DDR1, 1 hour at room temperature, Ki from IC50 by Cheng-Prusoff, read-out: Ki DDR1
[4] = 5 nM DDR2, 1 hour at room temperature, Ki from IC50 by Cheng-Prusoff, read-out: Ki DDR2

Row | Compound | Ki (DDR1; [3]) [µM] | IC50 (DDR1 receptor) [µM] | Ki (DDR2 [1]; [4]) [µM] | IC50 (DDR2 [2]) [µM] | Ki (DDR1; read-out: DDR1 Ki) [µM] | Ki (DDR2 [1]; read-out: DDR2 Ki) [µM]
1 | Cc1cn(-c2cc(NC(=O)c3ccc4c(c3)N(Cc3cncnc3)CC4)cc(C(F)(F)F)c2)cn1 [Example 1, N-(3-(4-methyl-1H-imidazol-1-yl)-5-(trifluoromethyl)phenyl)-1-(pyrimidin-5-ylmethyl)indoline-6-carboxamide] | < 0.025 | 0.05 to 0.08 | < 0.025 | – | – | –
2 | CNC(=O)c1cc(CN2CCc3ccc(C(=O)Nc4cc(-n5cnc(C)c5)cc(C(F)(F)F)c4)cc32)ccn1 [Example 2, N-(3-(4-methyl-1H-imidazol-1-yl)-5-(trifluoromethyl)phenyl)-1-((2-(methylcarbamoyl)pyridin-4-yl)methyl)indoline-6-carboxamide] | < 0.025 | 0.025 to 0.05 | < 0.025 | – | – | –
3 | CN1CCN(Cc2cc(NC(=O)c3ccc4c(c3)N(Cc3cncnc3)CC4)cc(C(F)(F)F)c2)CC1 [Example 3, N-(3-((4-methylpiperazin-1-yl)methyl)-5-(trifluoromethyl)phenyl)-1-(pyrimidin-5-ylmethyl)indoline-6-carboxamide] | < 0.025 | 0.05 to 0.08 | < 0.025 | – | – | –
4 | CN1CCN(Cc2cc(C(=O)Nc3ccc4c(c3)N(Cc3cnc(Nc5cnn(C)c5)nc3)CC4)cc(C(F)(F)F)c2)CC1 [Example 4, N-(1-((2-((1-methyl-1H-pyrazol-4-yl)amino)pyrimidin-5-yl)methyl)indolin-6-yl)-3-((4-methylpiperazin-1-yl)methyl)-5-(trifluoromethyl)benzamide] | < 0.025 | < 0.025 | < 0.025 | < 0.025 | – | –
5 | CN1CCN(Cc2cc(C(=O)Nc3ccc4c(c3)N(Cc3nccnc3N)CC4)cc(C(F)(F)F)c2)CC1 [Example 5, N-(1-((3-aminopyrazin-2-yl)methyl)indolin-6-yl)-3-((4-methylpiperazin-1-yl)methyl)-5-(trifluoromethyl)benzamide] | < 0.025 | < 0.025 | < 0.025 | 0.025 to 0.05 | – | –
6 | CNC(=O)c1cc(CN2CCc3ccc(NC(=O)c4cc(-n5cnc(C)c5)cc(C(F)(F)F)c4)cc32)ccn1 [Example 6, N-methyl-4-((6-(3-(4-methyl-1H-imidazol-1-yl)-5-(trifluoromethyl)benzamido)indolin-1-yl)methyl)picolinamide] | < 0.025 | 0.025 to 0.05 | < 0.025 | – | – | –
7 | CN1CCN(c2cncc(CN3CCc4ccc(C(=O)Nc5cccc(C(F)(F)F)c5)cc43)c2)CC1=O [Example 7, 1-((5-(4-methyl-3-oxopiperazin-1-yl)pyridin-3-yl)methyl)-N-(3-(trifluoromethyl)phenyl)indoline-6-carboxamide] | < 0.025 | < 0.025 | < 0.025 | – | – | –
8 | CN1CCN(Cc2ccc(NC(=O)c3ccc4c(c3)N(Cc3cnc(N)nc3)CC4)cc2C(F)(F)F)CC1 [Example 8, 1-((2-aminopyrimidin-5-yl)methyl)-N-(4-((4-methylpiperazin-1-yl)methyl)-3-(trifluoromethyl)phenyl)indoline-6-carboxamide] | < 0.025 | < 0.025 | 0.025 to 0.05 | – | – | –
9 | CN1CCN(Cc2ccc(NC(=O)c3ccc4c(c3)N(Cc3ccc(N)nc3)CC4)cc2C(F)(F)F)CC1 [Example 9, 1-((6-aminopyridin-3-yl)methyl)-N-(4-((4-methylpiperazin-1-yl)methyl)-3-(trifluoromethyl)phenyl)indoline-6-carboxamide] | < 0.025 | < 0.025 | 0.025 to 0.05 | – | – | –
10 | CN1CCN(Cc2ccc(NC(=O)c3ccc4c(c3)N(Cc3cncnc3N)CC4)cc2C(F)(F)F)CC1 [Example 10, 1-((4-aminopyrimidin-5-yl)methyl)-N-(4-((4-methylpiperazin-1-yl)methyl)-3-(trifluoromethyl)phenyl)indoline-6-carboxamide] | < 0.025 | < 0.025 | < 0.025 | – | – | –
11 | CN1CCN(Cc2ccc(NC(=O)c3ccc4c(c3)N(Cc3cnc(N)cn3)CC4)cc2C(F)(F)F)CC1 [Example 11, 1-((5-aminopyrazin-2-yl)methyl)-N-(4-((4-methylpiperazin-1-yl)methyl)-3-(trifluoromethyl)phenyl)indoline-6-carboxamide] | < 0.025 | < 0.025 | < 0.025 | – | – | –
12 | CNc1ncc(CN2CCc3ccc(C(=O)Nc4ccc(CN5CCN(C)CC5)c(C(F)(F)F)c4)cc32)cn1 [Example 12, 1-((2-(methylamino)pyrimidin-5-yl)methyl)-N-(4-((4-methylpiperazin-1-yl)methyl)-3-(trifluoromethyl)phenyl)indoline-6-carboxamide] | < 0.025 | < 0.025 | 0.025 to 0.05 | – | – | –
13 | CC(=O)Nc1ncc(CN2CCc3ccc(C(=O)Nc4ccc(CN5CCN(C)CC5)c(C(F)(F)F)c4)cc32)cn1 [Example 15, 1-((2-acetamidopyrimidin-5-yl)methyl)-N-(4-((4-methylpiperazin-1-yl)methyl)-3-(trifluoromethyl)phenyl)indoline-6-carboxamide] | < 0.025 | < 0.025 | – | – | – | –
14 | CN1CCN(Cc2ccc(NC(=O)c3ccc4c(c3)N(Cc3cncc(C(N)=O)c3)CC4)cc2C(F)(F)F)CC1 [Example 17, 1-((5-carbamoylpyridin-3-yl)methyl)-N-(4-((4-methylpiperazin-1-yl)methyl)-3-(trifluoromethyl)phenyl)indoline-6-carboxamide] | < 0.025 | 0.025 to 0.05 | < 0.025 | – | – | –
15 | COCCn1cc(Nc2ncc(CN3CCc4ccc(C(=O)Nc5cc(CN6CCN(C)CC6)cc(C(F)(F)F)c5)cc43)cn2)cn1 [Example 19, 1-((2-((1-(2-methoxyethyl)-1H-pyrazol-4-yl)amino)pyrimidin-5-yl)methyl)-N-(3-((4-methylpiperazin-1-yl)methyl)-5-(trifluoromethyl)phenyl)indoline-6-carboxamide] | < 0.025 | < 0.025 | < 0.025 | – | – | –
16 | CN(C)CCn1cc(Nc2ncc(CN3CCc4ccc(C(=O)Nc5cc(CN6CCN(C)CC6)cc(C(F)(F)F)c5)cc43)cn2)cn1 [Example 20, 1-((2-((1-(2-(dimethylamino)ethyl)-1H-pyrazol-4-yl)amino)pyrimidin-5-yl)methyl)-N-(3-((4-methylpiperazin-1-yl)methyl)-5-(trifluoromethyl)phenyl)indoline-6-carboxamide] | < 0.025 | 0.05 to 0.08 | < 0.025 | – | – | –
17 | CN1CCN(Cc2cc(C(=O)Nc3ccc4c(c3)N(Cc3cnc(N)nc3)CC4)cc(C(F)(F)F)c2)CC1 [Example 21, N-(1-((2-aminopyrimidin-5-yl)methyl)indolin-6-yl)-3-((4-methylpiperazin-1-yl)methyl)-5-(trifluoromethyl)benzamide] | < 0.025 | 0.05 to 0.08 | < 0.025 | – | – | –
18 | CN1CCN(Cc2cc(NC(=O)c3ccc4c(c3)N(c3cncnc3)CC4)cc(C(F)(F)F)c2)CC1 [Example C1, N-(3-((4-methylpiperazin-1-yl)methyl)-5-(trifluoromethyl)phenyl)-1-(pyrimidin-5-yl)indoline-6-carboxamide, reference compound] | – | – | – | – | 30 | 50
19 | Cc1cn(-c2cc(NC(=O)c3ccc4c(c3)N(c3cncnc3)CC4)cc(C(F)(F)F)c2)cn1 [Example C2, N-(3-(4-methyl-1H-imidazol-1-yl)-5-(trifluoromethyl)phenyl)-1-(pyrimidin-5-yl)indoline-6-carboxamide, reference compound] | – | – | – | – | 58 | 4
20 | CN1CCN(Cc2cc(C(=O)Nc3ccc4c(c3)N(c3cncnc3)CC4)cc(C(F)(F)F)c2)CC1 [Example C3, 3-((4-methylpiperazin-1-yl)methyl)-N-(1-(pyrimidin-5-yl)indolin-6-yl)-5-(trifluoromethyl)benzamide, reference compound] | – | – | – | – | 58 | 58

From patent US20240190847A1, “INDOLINE DERIVATIVES AS DDR1 AND DDR2 INHIBITORS” (CHIESI FARMACEUTICI S.P.A., priority 2021, published 2024)
